Reference: PubChem BioAssay (NCI)
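Dose response: 5 concentrations. Exposure: 48 h. Format: 96-well plates. Endpoint: linear interpolation; highest concentration if not reached. GI50 is the concentration that inhibits growth by half. TGI: total growth inhibition.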

Experiments:
Assay in all cases: NCI tumour cell line growth inhibition, 48 h
[1] = tested on: A549 NSCLC
[2] = tested on: HCC-2998 colon
[3] = tested on: HCT-116 colon
[4] = tested on: KM12 colon
[5] = tested on: M14 melanoma
[6] = tested on: MDA-MB-435
[7] = tested on: NCI-H226 lung
[8] = tested on: NCI-H23 lung
[9] = tested on: NCI-H460 lung
[10] = tested on: U251 CNS

Structure (SMILES)	GI50 [1]	TGI [1]	GI50 [2]	TGI [2]	GI50 [3]	TGI [3]	GI50 [4]	TGI [4]	GI50 [5]	TGI [5]	GI50 [6]	TGI [6]	GI50 [7]	TGI [7]	GI50 [8]	TGI [8]	GI50 [9]	TGI [9]	GI50 [10]	TGI [10]
Nc1c(S(=O)(=O)O)cc2c(c1Cl)C(=O)c1ccccc1C2=O	> 100 µM	> 100 µM	> 100 µM	> 100 µM	> 100 µM	> 100 µM	> 100 µM	> 100 µM	> 100 µM	> 100 µM	> 100 µM	> 100 µM	> 100 µM	> 100 µM	> 100 µM	> 100 µM	> 100 µM	> 100 µM	> 100 µM	> 100 µM
CN(Cc1cccc(Cl)c1)c1ccc(CO)c(Cl)c1	5.19 µM	23.9 µM	13.7 µM	34.1 µM	0.481 µM	11.3 µM	18.7 µM	43.3 µM	17.5 µM	49.3 µM	24.3 µM	85.5 µM	0.113 µM	0.284 µM	11.5 µM	46.1 µM	1.44 µM	15.2 µM	4.21 µM	19.2 µM
COc1ccc(-n2cc(-c3ccc(F)cc3)[nH]c2=O)cc1OC	> 100 µM	> 100 µM	> 100 µM	> 100 µM	> 100 µM	> 100 µM	> 100 µM	> 100 µM	> 100 µM	> 100 µM	> 100 µM	> 100 µM	> 100 µM	> 100 µM	> 100 µM	> 100 µM	> 100 µM	> 100 µM	> 100 µM	> 100 µM
Nc1nc(-c2ccccc2Cl)cc(-c2ccc(Cl)cc2Cl)n1	4.81 µM	> 100 µM	7.19 µM	44 µM	4.27 µM	> 100 µM	4.1 µM	31.3 µM	5.95 µM	> 100 µM	1.97 µM	4.93 µM	18.1 µM	> 100 µM	12.3 µM	> 100 µM	3.31 µM	23.1 µM	11.1 µM	> 100 µM
Cc1cnc2n(c1=O)Cc1ccccc1CO2	28.7 µM	> 100 µM	16 µM	31.4 µM	17.2 µM	43.8 µM	18 µM	34.3 µM	14.5 µM	29.1 µM	25.9 µM	> 72.1 µM	20.4 µM	52.5 µM	21.1 µM	60.5 µM	17.7 µM	40.2 µM	15.7 µM	29.9 µM
Nc1c2c(c(O)c3c1=C(CO)C=N3)=NCCS2=O (centres undefined)	1.72 µM	3.55 µM	1.21 µM	2.81 µM	2.25 µM	4.95 µM	1.7 µM	10.6 µM	1.59 µM	3.09 µM	1.86 µM	3.41 µM	1.79 µM	4.17 µM	0.615 µM	5.64 µM	0.649 µM	2.31 µM	1.78 µM	3.26 µM
O=C1CCCC1C(O)(C(F)(F)Cl)C(F)(F)Cl (centres undefined)		> 10 µM		> 10 µM		> 10 µM		> 10 µM		> 10 µM		> 10 µM		> 10 µM		> 10 µM		> 10 µM		> 10 µM
COc1cc(-c2cc(C(=O)N3CCN(C(=O)c4ccccc4NCc4cccs4)CC3)nc3cc(-c4ccccc4)nn23)cc(OC)c1OC	5.68 µM	> 100 µM	14.3 µM	> 100 µM	4.49 µM	> 100 µM	3.16 µM	> 100 µM	5.91 µM	> 100 µM	1.16 µM	4.34 µM	6.39 µM	> 100 µM	15.7 µM	> 100 µM	4.26 µM	> 100 µM	5.76 µM	> 100 µM
Clc1ccc2c(NCCCNCc3ccc4c(c3)OCO4)ccnc2c1	9.47 µM	22.8 µM	2.03 µM	5.25 µM	2.03 µM	8.82 µM	3.86 µM	15.1 µM	1.74 µM	3.42 µM	1.68 µM	3.29 µM	17.8 µM	40.9 µM	8.59 µM	23.8 µM	3.61 µM	12.1 µM	2.68 µM	7.11 µM
O=C(Nc1ccc(-n2cc(-c3ccncc3)c(-c3ccc(Cl)c(O)c3)n2)cc1)c1ccc(Cl)c(C(F)(F)F)c1	5.41 µM	> 31.4 µM	1.69 µM	6.96 µM	0.918 µM	2.45 µM	0.451 µM	2.88 µM	1.16 µM	3.29 µM	1.45 µM	13.1 µM	16.3 µM	> 71 µM	1.72 µM	5.08 µM	1.43 µM	11.1 µM	0.895 µM	2.91 µM
NCCCCNCCCNC(=O)c1csc(-c2nc(CCN)sc2Cl)n1		> 100 µM		> 100 µM		> 100 µM		> 100 µM		> 100 µM		> 100 µM		> 100 µM		> 100 µM		> 100 µM		> 100 µM
O=C1/C=C/[C@@H](O)[C@@H]2C[C@@H](O)C[C@H]2/C=C/CCCCO1	0.422 µM	> 100 µM	0.32 µM	1.76 µM	0.447 µM	1.53 µM	0.225 µM	0.553 µM	0.336 µM	> 100 µM	0.338 µM	> 26.8 µM	0.224 µM		0.488 µM	63.1 µM	1.77 µM	> 100 µM	0.408 µM	> 100 µM
CC/C(=C(/c1ccc(Cl)cc1)c1ccc(OCCCN(C)C)cc1)c1ccc(OC)cc1	3.88 µM	10.7 µM	8.74 µM	17.4 µM	0.86 µM	1.57 µM	2.55 µM	10.1 µM	0.966 µM	1.92 µM	3.28 µM	9.69 µM	7.7 µM	18.3 µM	7.43 µM	15.1 µM	1.1 µM	2.46 µM	1.66 µM	5.4 µM
Cn1cc(C2=C(c3cn(CCCN/C(N)=N\[N+](=O)[O-])c4ccccc34)C(=O)NC2=O)c2ccccc21	8.52 µM	> 25 µM	6.72 µM	20.4 µM	1.82 µM	> 25 µM	2.77 µM	> 18.1 µM	4.8 µM	12.3 µM	3.01 µM	7.73 µM	4.56 µM	> 19.1 µM	5.13 µM	15.9 µM	5.9 µM	20.6 µM	2.05 µM	15.4 µM
